Measured values from patent publication US4880789A, “2'-Substituted-4-deoxy-thiazolo(5,4-c)-rifamycin SV derivatives” (Gruppo Lepetit S.P.A., priority 1985, dated 1989).
≈ marks a conversion by molar mass, not a printed value. Read-outs that look alike come from different tables or passages of the source.

Tests used:
[1] = test system: Streptococcus pyogenes C203; experiment: MIC, two-fold dilution microtiter, S. pyogenes C203; assay type: cell-based; settings: Streptococcus pyogenes, Todd-Hewitt broth, 18-24 h, 37° C, read-out: MIC
Procedure: (§1) The minimum inhibitory concentration (MIC) of representative compounds of the invention was determined using two-fold dilution method in microtiter system. The media used were: Todd-Hewitt broth (Difco) for steptococci; Iso-Sensitest broth (Oxoid) for staphylococci and gram-negative bacteria. The final inoculum was about 10^4 cfμ/ml. […] For M. tuberculosis H37 RV the inoculum consisted of 0.5-1% of a 7-9 day culture in Dubos medium. The tests were carried out in Kirschner medium supplemented with 10% horse serum. Observations were made after 7-days incubation at 37° C.

S. pneumoniae UC 41 = experiment: MIC, two-fold dilution microtiter, S. pneumoniae UC 41; assay type: cell-based; settings: Streptococcus pneumoniae, UC41, Todd-Hewitt broth, 18-24 h, 37° C, read-out: MIC
S. aureus TOUR L 165 [2] = experiment: MIC, two-fold dilution microtiter, S. aureus TOUR L 165; assay type: cell-based, Staphylococcus aureus
S. aureus tour L 165 [3] = experiment: experimental septicemia in mice (S. aureus); assay type: in vivo; settings: Staphylococcus aureus, once daily for three days, survival on 10th day
Procedure: The antimicrobial activity of the compounds of the invention is also confirmed in "in vivo" tests. The animals (groups of five mice) were infected by intraperitoneal injection of 16-hour broth culture of S. aureus tour L 165. Inocula were adjusted so that untreated animals died of septicemia within 48 hours. Animals were treated once daily for three days starting immediately after infection. On the 10th day the value for the ED50 in mg/kg/day was calculated by the method of […]-KARBER (Finney, D. J., Statistical method in biological assay, page 524. C. Griffin Ltd., London, 1952), on the basis of the percentage of surviving animals at each dose.

[4] = test system: Proteus vulgaris XI9H ATCC 881; experiment: MIC, two-fold dilution microtiter, P. vulgaris; assay type: cell-based; settings: Proteus vulgaris, ATCC881; P. vulgaris XI9H ATCC 881; Iso-Sensitest broth; 18-24 h, 37° C; read-out: MIC
[5] = test system: Escherichia coli SKF 12140; experiment: MIC, two-fold dilution microtiter, E. coli SKF 12140; assay type: cell-based; settings: Escherichia coli, SKF12140, Iso-Sensitest broth, 18-24 h, 37° C, read-out: MIC
S. faecalis ATCC 7080 = experiment: MIC, two-fold dilution microtiter, S. faecalis ATCC 7080; assay type: cell-based; settings: Enterococcus faecalis, ATCC7080, 18-24 h, 37° C, read-out: MIC
S. aureus TOUR L 1282 = experiment: MIC, two-fold dilution microtiter, rifampicin resistant S. aureus TOUR L 1282; assay type: cell-based; settings: Staphylococcus aureus, TOURL1282, rifampicin resistant strain
[6] = test system: Mycobacterium tuberculosis H37RV ATCC 9360; experiment: MIC, M. tuberculosis H37RV, Kirschner medium; assay type: cell-based; settings: Mycobacterium tuberculosis, 168 h, 10% horse serum, 7 days, 37° C, read-out: MIC
Procedure: as §1

[7] = test system: Staphylococcus aureus ATCC 6538; experiment: MIC, two-fold dilution microtiter, S. aureus ATCC 6538; assay type: cell-based; settings: Staphylococcus aureus, ATCC6538
[8] = test system: Klebsiella pneumoniae ISM; experiment: MIC, two-fold dilution microtiter, K. pneumoniae ISM; assay type: cell-based; settings: Klebsiella pneumoniae
[9] = test system: Pseudomonas aeruginosa ATCC 10145; experiment: MIC, two-fold dilution microtiter, P. aeruginosa ATCC 10145; assay type: cell-based; settings: Pseudomonas aeruginosa, ATCC10145; P. aeruginosa ATCC 10145; Iso-Sensitest broth; 18-24 h, 37° C; read-out: MIC
[10] = Staphylococcus aureus, TOURL165, S. aureus TOUR L 165, Iso-Sensitest broth, 18-24 h, 37° C, read-out: MIC
[11] = Staphylococcus aureus, TOURL165, S. aureus TOUR L 165, supplemented with 30% bovine serum, read-out: MIC
[12] = S. aureus ATCC 6538, Iso-Sensitest broth, 18-24 h, 37° C, read-out: MIC
[13] = K. pneumoniae ISM, Iso-Sensitest broth, 18-24 h, 37° C, read-out: MIC

SMILES | MIC [1] [µg/mL] | MIC (S. pneumoniae UC 41) [µg/mL] | MIC (S. aureus TOUR L 165 [2]; [10]) [µg/mL] | MIC (S. aureus TOUR L 165 [2]; [11]) [µg/mL] | ED50 (S. aureus tour L 165 [3]; TOURL165, 240 h, sc) [mg/kg] | ED50 (S. aureus tour L 165 [3]; TOURL165, po, 240 h, os) [mg/kg] | MIC [4] [µg/mL] | MIC [5] [µg/mL] | MIC (S. faecalis ATCC 7080) [µg/mL] | MIC (S. aureus TOUR L 1282) [µg/mL] | MIC [6] [µg/mL] | MIC [7, 12] [µg/mL] | MIC [8, 13] [µg/mL] | MIC [9] [µg/mL] | MIC (S. aureus TOUR L 165 [2]; S. aureus TOUR L 165, supplemented with 30% bovine serum) [µg/mL] | MIC (S. aureus TOUR L 165 [2]; Staphylococcus aureus, TOURL165) [µg/mL] | MIC [7] [µg/mL] | MIC [8] [µg/mL]
CCN(CC)c1nc2c(s1)c1c(O)c3c(O)c(C)c4c(c32)C(=O)C(C)(OC=CC(OC)C(C)C(OC(C)=O)C(C)C(O)C(C)C(O)C(C)C=CC=C(C)C(=O)N1)O4 (centres unmarked) [Example 5, 2'-(N,N-diethylamino) rifamycin P] | 0.064 (≈ 0.079 µM) | 0.032 (≈ 0.0395 µM) | 0.064 (≈ 0.079 µM) | 0.5 (≈ 0.617 µM) | 0.21 | 0.82 | 32 (≈ 39.5 µM) | 32 (≈ 39.5 µM) | 1 (≈ 1.23 µM) | > 128 | 0.5 (≈ 0.617 µM) | 0.032 (≈ 0.0395 µM) | 64 (≈ 79 µM) | – | – | – | – | –
COC1C=COC2(C)Oc3c(C)c(O)c4c(O)c(c5sc(N6CCN(C)CC6)nc5c4c3C2=O)NC(=O)C(C)=CC=CC(C)C(O)C(C)C(O)C(C)C(OC(C)=O)C1C (centres unmarked) [Example 3a, 2'-(4"-Methyl-1"-piperazinyl) rifamycin P] | 0.032 (≈ 0.0382 µM) | 0.032 (≈ 0.0382 µM) | 0.004 (≈ 0.00478 µM) | 0.004 (≈ 0.00478 µM) | 0.16 | 0.36 | 8 (≈ 9.56 µM) | 16 (≈ 19.1 µM) | 2 (≈ 2.39 µM) | 32 (≈ 38.2 µM) | 1 (≈ 1.19 µM) | 0.001 (≈ 0.00119 µM) | 32 (≈ 38.2 µM) | 16 (≈ 19.1 µM) | – | – | – | –
COC1C=COC2(C)Oc3c(C)c(O)c4c(O)c(c5sc(N6CCNCC6)nc5c4c3C2=O)NC(=O)C(C)=CC=CC(C)C(O)C(C)C(O)C(C)C(OC(C)=O)C1C (centres unmarked) [Example 4, 2'-(1"-Piperazinyl) rifamycin P] | 0.125 (≈ 0.152 µM) | 0.064 (≈ 0.0778 µM) | – | – | – | – | 8 (≈ 9.72 µM) | 8 (≈ 9.72 µM) | 2 (≈ 2.43 µM) | > 128 | – | – | 16 (≈ 19.4 µM) | 16 (≈ 19.4 µM) | 0.125 (≈ 0.152 µM) | 0.125 (≈ 0.152 µM) | 0.125 (≈ 0.152 µM) | –
COC1C=COC2(C)Oc3c(C)c(O)c4c(O)c(c5sc(N6CCN(C)CC6)nc5c4c3C2=O)NC(=O)C(C)=CC=CC(C)C(O)C(C)C(O)C(C)C(O)C1C (centres unmarked) [Example 3b, 25-Desacetyl-2'-(4"-methyl-1-piperazinyl) rifamycin P] | 0.063 (≈ 0.0792 µM) | 0.063 (≈ 0.0792 µM) | 0.008 (≈ 0.0101 µM) | 0.016 (≈ 0.0201 µM) | 10 | 13 | 8 (≈ 10.1 µM) | 8 (≈ 10.1 µM) | 1 (≈ 1.26 µM) | > 128 | 1 (≈ 1.26 µM) | 0.008 (≈ 0.0101 µM) | 16 (≈ 20.1 µM) | 8 (≈ 10.1 µM) | – | – | – | –
COC1C=COC2(C)Oc3c(C)c(O)c4c(O)c(c5sc(N6CCN(CCO)CC6)nc5c4c3C2=O)NC(=O)C(C)=CC=CC(C)C(O)C(C)C(O)C(C)C(OC(C)=O)C1C (centres unmarked) [Example 3c, 2'-[4"(2'"-hydroxyethyl)-1"-piperazinyl]rifamycin P] | 0.016 (≈ 0.0185 µM) | 0.008 (≈ 0.00923 µM) | 0.016 (≈ 0.0185 µM) | 0.032 (≈ 0.0369 µM) | 3.3 | > 20 | 16 (≈ 18.5 µM) | 8 (≈ 9.23 µM) | 4 (≈ 4.61 µM) | 64 (≈ 73.8 µM) | 4 (≈ 4.61 µM) | 0.008 (≈ 0.00923 µM) | 32 (≈ 36.9 µM) | 128 (≈ 148 µM) | – | – | – | –
COc1ccc(N2CCN(c3nc4c(s3)c3c(O)c5c(O)c(C)c6c(c54)C(=O)C(C)(OC=CC(OC)C(C)C(OC(C)=O)C(C)C(O)C(C)C(O)C(C)C=CC=C(C)C(=O)N3)O6)CC2)cc1 (centres unmarked) [Example 3e, 2'-[4"(4'"-methoxyphenyl)-1-piperazinyl]rifamycin P] | 0.125 (≈ 0.135 µM) | 0.064 (≈ 0.0689 µM) | 0.064 (≈ 0.0689 µM) | 0.5 (≈ 0.538 µM) | 0.63 | 1.9 | 64 (≈ 68.9 µM) | 8 (≈ 8.61 µM) | 4 (≈ 4.31 µM) | > 128 | 0.25 (≈ 0.269 µM) | 0.064 (≈ 0.0689 µM) | – | 8 (≈ 8.61 µM) | – | – | – | > 128
